Assay results: patent publication US9365614B2, “IAP BIR domain binding compounds” (priority 2006, dated 2016)
pEC50, pKi: −log10 of the molar value. Like-named read-outs stand apart in the source and are kept apart here.

Experiments:
[1] = system: SKOV-3 cells; experiment: Survival MTT assay, SKOV-3; assay type: cell-based; conditions: Homo sapiens, SK-OV-3, 72 h
Description: (§1) One day prior the treatment with compound, 2000 to 4000 cells per well were plated in a tissue culture treated 96 well format dish with 100 ul of media and incubated at 37° C., 5% CO2. On the day of compound treatment, compounds were diluted with cell culture media to a working stock concentration of 2×. 100 uL of diluted compound were then added to each well. The treated plate was incubated for 72 h at 37° C., 5% CO2. Upon incubation, the cell viability was assessed as followed 20 uL of MTT reagent at 5 mg/ml were added per well to cell plate. The plate was incubated for 2 h at 37° C. in presence of 5% CO2. The supernatant was then removed from the plate and 100 uL of isopropanol were added. The absorbance was measured in a TECAN spectrophotometer at 570 nm. The percentage of viability was expressed in percentage of the signal obtained with non treated cells.

[2] = system: MDA-MB231 cells; experiment: Survival MTT assay, MDA-MB-231; assay type: cell-based; conditions: Homo sapiens, 72 h
Description: as §1

[3] = system: H460 (lung) cells; experiment: Survival assay with TRAIL, H460; assay type: cell-based; conditions: Homo sapiens, NCI-H460; in the presence of TRAIL (1-3 ng/mL)
Description: MDA-MD-231 (breast) and H460 (lung) cancer cells were cultured in RPMI1640 media supplemented with 10% FBS and 100 units/mL of Penicillin and Steptomycin.
(§2) Survival assays were performed on various cell lines including MDA-MB-231, SKOV3, H460, PC3, HCT-116, and SW480 cells. Cells were seeded in 96 well plates at a respective density of 5000 and 2000 cells per well and incubated at 37° C. in presence of 5% CO2 for 24 hours. Selected compounds were diluted into the media at various concentration ranging from 0.01 uM up to 100 uM. Diluted compounds were added onto the MDA-MB-231 cells. For the MDA-MB-231 SKOV3, H460, PC3, HCT-116, and SW480 cells, the compounds were added either alone or in presence of 1-3 ng/ml of TRAIL. After 72 hours cellular viability was evaluated by MTS based assays. A solution of [3-(4,5-dimethylthiazol-2-yl)-5-(3-carboxymethoxyphenyl)-2-(4-sulfophenyl)-2H-tetrazolium, inner salt; MTS] was added onto cells for a period of 1 to 4 hours. Upon incubation the amount of converted MTS was evaluated using a Tecan spectrophotometer set at 570 nm.

[4] = system: HEY (ovarian) cells; experiment: Survival assay with TRAIL, HEY; assay type: cell-based; conditions: in the presence of TRAIL (1-3 ng/mL)
Description: as §2

[5] = system: OVCAR-3 (ovarian) cells; experiment: Survival assay with TRAIL, OVCAR-3; assay type: cell-based; conditions: Homo sapiens, in the presence of TRAIL (1-3 ng/mL)
[6] = system: PC3 cells; experiment: Survival assay (MTS), PC3; assay type: cell-based; conditions: Homo sapiens, PC-3; in the presence of TRAIL (1-3 ng/ml)
Description: as §2

[7] = system: HCT116 (colon) cells; experiment: Survival assay with TRAIL, HCT116; assay type: cell-based; conditions: Homo sapiens, HCT-116; in the presence of TRAIL (1-3 ng/mL)
Description: as §2

[8] = system: HELA (cervical) cells; experiment: Survival assay with TRAIL, HELA; assay type: cell-based; conditions: Homo sapiens, in the presence of TRAIL (1-3 ng/mL)
Description: as §2

[9] = target: T1, XIAP linker BIR2-BIR3-ring (GST-linker BIR 2 BIR3Ring) (Homo sapiens, UniProt P98170); experiment: Fluorescence polarization competition assay, BIR2-BIR3-ring, probe P2; assay type: binding; conditions: BIR2-BIR3-ring FP assay
T1 construct: made in house; host or cells: E. coli DH5-alpha
From the text: GST-linker BIR 2 BIR3Ring: XIAP coding sequence from amino acids 93-497 cloned into PGex4T1 via BamH1 and XhoI. Amino acids 93-497 were amplified from full length XIAP in pGex4t3, using the primers: […] (SEQ ID NO: 7) and GCTGCATGTGTGTCAGAGG (SEQ ID NO: 8), using standard PCR conditions. The PCR fragment was TA cloned into pCR-2.1 (invitrogen). Linker BIR 2 BIR 3Ring was subcloned into pGex4T1 by BamHI/XhoI digestion. The plasmid was transformed into E. coli DH5a for use in protein expression and purification.
For all assays, the fluorescence and fluorescence-polarization was evaluated using a Tecan Polarion instrument with the excitation filter set at 485 nm and the emission filter set at 535 nm. […] Upon establishing these conditions, the compounds potency (IC50) and selectivity, was assessed in the presence of a fix defined-amount of target protein and fluorescent probe and a 10 point serial dilution of the selected compounds. […] Auto-fluorescence for each compound was first assessed by performing a reading of the compound/BSA solution alone. Then 25 uL of the fluorescein probe diluted into 50 mM MES containing 0.05 mg/ml BSA were added and a reading to detect quenching of fluorescein signal done. […]
The ki of various compounds in the BIR2-BIR3-ring FP assay, using probe P2, was determined as described above.

T1 sequence (P98170 93-497): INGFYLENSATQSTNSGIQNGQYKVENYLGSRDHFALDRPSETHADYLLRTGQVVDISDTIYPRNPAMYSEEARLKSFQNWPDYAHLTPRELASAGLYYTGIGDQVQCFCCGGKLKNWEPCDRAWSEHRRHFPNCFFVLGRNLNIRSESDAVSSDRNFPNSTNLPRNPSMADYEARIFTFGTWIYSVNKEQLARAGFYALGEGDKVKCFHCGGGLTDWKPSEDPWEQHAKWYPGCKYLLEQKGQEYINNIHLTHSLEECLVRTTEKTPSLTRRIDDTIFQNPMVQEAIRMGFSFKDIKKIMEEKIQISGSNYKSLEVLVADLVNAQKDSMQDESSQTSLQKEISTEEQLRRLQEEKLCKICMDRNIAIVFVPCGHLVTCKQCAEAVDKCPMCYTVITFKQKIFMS

| SMILES | pEC50 ([1]; read-out: SKOV-3 EC50) | pEC50 [2] | other results |
| --- | --- | --- | --- |
| CN[C@@H](C)C(=O)N[C@H](C(=O)N1C[C@@H](OCC#CC#CCO[C@H]2C[C@@H](C(=O)N[C@@H]3CCCc4ccccc43)N(C(=O)[C@@H](NC(=O)[C@H](C)NC)C(C)(C)C)C2)C[C@H]1C(=O)N[C@@H]1CCCc2ccccc21)C(C)(C)C [Compound 1] | > 7.30 | > 7.30 |  |
| CN[C@@H](C)C(=O)N[C@H](C(=O)C1C[C@@H](NC(=O)CCCCCCCCC(=O)N[C@H]2C[C@@H](C(=O)N[C@@H]3CCCc4ccccc43)N(C(=O)[C@@H](NC(=O)[C@H](C)NC)C(C)(C)C)C2)C[C@H]1C(=O)N[C@@H]1CCCc2ccccc21)C(C)(C)C (stereo partly shown) [Compound 2] | > 7.30 | > 7.30 |  |
| CN[C@@H](C)C(=O)N[C@H](C(=O)N1C[C@@H](NC(=O)c2ccc(C(=O)N[C@H]3C[C@@H](C(=O)N[C@@H]4CCCc5ccccc54)N(C(=O)[C@@H](NC(=O)[C@H](C)NC)C(C)(C)C)C3)cc2)C[C@H]1C(=O)N[C@@H]1CCCc2ccccc21)C(C)(C)C [Compound 3] |  | > 7.30 | pEC50 [3]: > 6.00; pEC50 [4]: > 6.00; pEC50 ([1]; read-out: EC50 against SKOV3): 9.00; pEC50 [5]: > 6.00; pEC50 [6]: > 6.00; pEC50 [7]: > 6.00; pEC50 [8]: > 6.00; pKi [9]: > 7.00 |
| CC(C)(C)[C@H](NC(=O)[C@@H](N)CO)C(=O)N1C[C@@H](OCC#CC#CCO[C@H]2C[C@@H](C(=O)N[C@@H]3CCCc4ccccc43)N(C(=O)[C@@H](NC(=O)[C@@H](N)CO)C(C)(C)C)C2)C[C@H]1C(=O)N[C@@H]1CCCc2ccccc21 [Compound 5] |  | < 6.00 |  |
| CN[C@@H](C)C(=O)N[C@H](C(=O)N1C[C@@H](NC(=O)c2ccc(C(=O)N[C@H]3C[C@@H](C(=O)N[C@@H]4CCCc5ccccc54)N(C(=O)[C@@H](NC(=O)[C@H](C)NC)C(C)(C)C)C3)cc2)C[C@H]1C(=O)N[C@@H]1CCCc2ccccc21)C(C)(C)C [Compound 55] | > 7.30 |  |  |
| CN[C@@H](C)C(=O)N[C@H](C(=O)N1C[C@@H](NS(=O)(=O)c2ccc3cc(S(=O)(=O)N[C@H]4C[C@@H](C(=O)N[C@@H]5CCCc6ccccc65)N(C(=O)[C@@H](NC(=O)[C@H](C)NC)C(C)(C)C)C4)ccc3c2)C[C@H]1C(=O)N[C@@H]1CCCc2ccccc21)C(C)(C)C [Compound 56] | > 7.30 |  |  |
| CN[C@@H](C)C(=O)N[C@H](C(=O)N1C[C@@H](CC(=O)c2ccc3ccc(C(=O)N[C@H]4C[C@@H](C(=O)N[C@@H]5CCCc6ccccc65)N(C(=O)[C@@H](NC(=O)[C@H](C)NC)C(C)(C)C)C4)cc3c2)C[C@H]1C(=O)N[C@@H]1CCCc2ccccc21)C(C)(C)C [Compound 57] | > 7.30 |  |  |
| CN[C@@H](C)C(=O)N[C@H](C(=O)N1C[C@@H](NS(=O)(=O)c2ccc3ccc(S(=O)(=O)N[C@H]4C[C@@H](C(=O)N[C@@H]5CCCc6ccccc65)N(C(=O)[C@@H](NC(=O)[C@H](C)NC)C(C)(C)C)C4)cc3c2)C[C@H]1C(=O)N[C@@H]1CCCc2ccccc21)C(C)(C)C [Compound 58] | > 6.60 |  |  |
| CN[C@@H](C)C(=O)N[C@H](C(=O)N1C[C@@H](NC(=O)c2ccc(C(=O)N[C@H]3C[C@@H](C(=O)N[C@H](CO)c4ccccc4)N(C(=O)[C@@H](NC(=O)[C@H](C)NC)C(C)(C)C)C3)cc2)C[C@H]1C(=O)N[C@H](CO)c1ccccc1)C(C)(C)C [Compound 59] | > 6.60 |  |  |
| CN[C@@H](C)C(=O)N[C@H](C(=O)N1C[C@@H](NC(=O)c2ccc(C(=O)N[C@H]3C[C@@H](C(=O)NCc4ccccc4-c4ccccc4)N(C(=O)[C@@H](NC(=O)[C@H](C)NC)C(C)(C)C)C3)cc2)C[C@H]1C(=O)NCc1ccccc1-c1ccccc1)C(C)(C)C [Compound 60] | > 7.30 |  |  |
| CN[C@@H](C)C(=O)N[C@H](C(=O)N1C[C@@H](NC(=O)c2ccc(C(=O)N[C@H]3C[C@@H](C(=O)NC4Cc5ccccc5C4)N(C(=O)[C@@H](NC(=O)[C@H](C)NC)C(C)(C)C)C3)cc2)C[C@H]1C(=O)NC1Cc2ccccc2C1)C(C)(C)C [Compound 61] | > 7.30 |  |  |
| CN[C@@H](C)C(=O)N[C@H](C(=O)N1C[C@@H](NC(=O)c2ccc(C(=O)N[C@H]3C[C@@H](C(=O)N[C@H](COCc4ccccc4)c4ccccc4)N(C(=O)[C@@H](NC(=O)[C@H](C)NC)C(C)(C)C)C3)cc2)C[C@H]1C(=O)N[C@H](COCc1ccccc1)c1ccccc1)C(C)(C)C [Compound 64] | > 7.30 |  |  |
